Reference: patent US8354410B2 (Bristol-Meyers Squibb Company, priority 2010, dated 2013)

Legend:
HCV = details: cited from earlier work
HCV NS5B = target: T1, HCV NS5B (Hepatitis C virus genotype 1b, UniProt Q9WMX2); assay: HCV NS5B RdRp enzyme assay; format: biochemical; details: HCV NS5B RdRp genotype 1b; standard or modified assay not specified
T1 construct: The protein was expressed with an 18 amino acid C-terminal truncation to enhance the solubility; made in house; host or cells: E. coli BL21(DE3)
Experimental: HCV NS5B RdRp cloning, expression, and purification. The cDNA encoding the NS5B protein of HCV, genotype 1b, was cloned into the pET21a expression vector. The protein was expressed with an 18 amino acid C-terminal truncation to enhance the solubility. The E. coli competent cell line BL21(DE3) was used for expression of the protein. Cultures were grown at 37° C. for ˜4 hours until the cultures reached an optical density of 2.0 at 600 nm. The cultures were cooled to 20° C. and induced with 1 mM IPTG. Fresh ampicillin was added to a final concentration of 50 μg/ml and the cells were grown overnight at 20° C.
Cell pellets (3 L) were lysed for purification to yield 15-24 mgs of purified NS5B. The lysis buffer consisted of 20 mM Tris-HCl, pH 7.4, 500 mM NaCl, 0.5% triton X-100, 1 mM DTT, 1 mM EDTA, 20% glycerol, 0.5 mg/ml lysozyme, 10 mM MgCl2, 15 ug/ml deoxyribonuclease I, and Complete TM protease inhibitor tablets (Roche). After addition of the lysis buffer, frozen cell pellets were resuspended using a tissue homogenizer. To reduce the viscosity of the sample, aliquots of the lysate were sonicated on ice using a microtip attached to a Branson sonicator. The sonicated lysate was centrifuged at 100,000×g for 1 hr at 4° C. and filtered through a 0.2 μm filter unit (Corning).
The protein was purified using three sequential chromatography steps: Heparin sepharose CL-6B, polyU sepharose 4B, and Hitrap SP sepharose (Pharmacia). The chromatography buffers were identical to the lysis buffer but contained no lysozyme, deoxyribonuclease I, MgCl2 or protease inhibitor and the NaCl concentration of the buffer was adjusted according to the requirements for charging the protein onto the column. Each column was eluted with a NaCl gradient which varied in length from 5-50 column volumes depending on the column type. After the final chromatography step, the resulting purity of the enzyme is >90% based on SDS-PAGE analysis. The enzyme was aliquoted and stored at −80° C.
Standard HCV NS5B RdRp enzyme assay. HCV RdRp genotype 1b assays were run in a final volume of 60 μl in 96 well plates (Costar 3912). The assay buffer is composed of 20 mM Hepes, pH 7.5, 2.5 mM KCl, 2.5 mM MgCl2, 1 mM DTT, 1.6 U RNAse inhibitor (Promega N2515), 0.1 mg/ml BSA (Promega R3961), and 2% glycerol. All compounds were serially diluted (3-fold) in DMSO and diluted further in water such that the final concentration of DMSO in the assay was 2%. HCV RdRp genotype 1b enzyme was used at a final concentration of 28 nM. A polyA template was used at 6 nM, and a biotinylated oligo-dT12 primer was used at 180 nM final concentration. Template was obtained commercially (Amersham 27-4110). Biotinylated primer was prepared by Sigma Genosys. 3H-UTP was used at 0.6 μCi (0.29 μM total UTP). Reactions were initiated by the addition of enzyme, incubated at 30° C. for 60 min, and stopped by adding 25 μl of 50 mM EDTA containing SPA beads (4 μg/μl, Amersham RPNQ 0007). Plates were read on a Packard Top Count NXT after >1 hr incubation at room temperature.
Modified HCV NS5B RdRp enzyme assay. A modified enzyme assay was performed essentially as described for the standard enzyme assay except for the following: The biotinylated oligo dT12 primer was precaptured on streptavidin-coated SPA beads by mixing primer and beads in assay buffer and incubating at room temperature for one hour. Unbound primer was removed after centrifugation. The primer-bound beads were resuspended in 20 mM Hepes buffer, pH 7.5 and used in the assay at final concentrations of 20 nM primer and 0.67 μg/μl beads. Order of addition in the assay: enzyme (14 nM) was added to diluted compound followed by the addition of a mixture of template (0.2 nM), 3H-UTP (0.6 μCi, 0.29 μM), and primer-bound beads, to initiate the reaction; concentrations given are final. Reactions were allowed to proceed for 4 hours at 30° C.
IC50 values for compounds were determined using seven different [I]. […]

HCV replicon = HCV replicon assay (FRET / luciferase reporter); format: cell-based, HCV (HUH-7 cells); details: Hepatitis C virus; HCV replicon cells
Excerpt: FRET Assay Preparation. To perform the HCV FRET screening assay, 96-well cell culture plates were used. The FRET peptide (Anaspec, Inc.) (Taliani et al., Anal. Biochem. 1996, 240, 60-67) contains a fluorescence donor, EDANS, near one end of the peptide and an acceptor, DABCYL, near the other end. The fluorescence of the peptide is quenched by […] resonance energy transfer (RET) between the donor and the acceptor, but as the NS3 protease cleaves the peptide the products are released from RET quenching and the fluorescence of the donor becomes apparent. The assay reagent was made as follows: 5× cell Luciferase cell culture lysis reagent from Promega (#E153A) diluted to 1× with dH2O, NaCl added to 150 mM final, the FRET peptide diluted to 20 μM final from a 2 mM stock.
To prepare plates, HCV replicon cells, with or without a Renilla luciferase reporter gene, were trypsinized and placed into each well of a 96-well plate with titrated test compounds added in columns 3 through 12; columns 1 and 2 contained a control compound (HCV protease inhibitor), and the bottom row contained cells without compound. The plates were then placed in a CO2 incubator at 37° C.
Assays. Subsequent to addition of the test compounds described above (FRET Assay Preparation), at various times the plate was removed and Alamar blue solution (Trek Diagnostics, #00-100) was added per well as a measure of cellular toxicity. After reading in a Cytoflour 4000 instrument (PE Biosystems), plates were rinsed with PBS and then used for FRET assay by the addition of 30 ul of the FRET peptide assay reagent described above (FRET Assay Preparation) per well. The plate was then placed into the Cytoflour 4000 instrument which had been set to 340 excite/490 emission, automatic mode for 20 cycles and the plate read in a kinetic mode. Typically, the signal to noise using an endpoint analysis after the reads was at least three-fold. Alternatively, after Alamar blue reading, plates were rinsed with PBS, 50 ul of DMEM (high glucose) without phenol red was added and plates were then used for luciferase assay using the Promega Dual-Glo Luciferase Assay System.
Compound analysis was determined by quantification of the relative HCV replicon inhibition and the relative cytotoxicity values. To calculate cytoxicity values, the average Alamar Blue fluorescence signals from the control wells were set as 100% non-toxic. The individual signals in each of the compound test wells were then divided by the average control signal and multiplied by 100% to determine […]. To calculate the HCV replicon inhibition values, an average background value was obtained from the two wells containing the highest amount of HCV protease inhibitor at the end of the assay period. These numbers were similar to those obtained from naïve Huh-7 cells.
The background numbers were then subtracted from the average signal obtained from the control wells and this number was used as 100% activity. The individual signals in each of the compound test wells were then divided by the averaged control values after background subtraction and multiplied by 100% to determine percent activity. EC50 values for a protease inhibitor titration were calculated as the concentration which caused a 50% reduction in FRET or luciferase activity. The two numbers generated for the compound plate, percent cytoxicity and percent activity were used to determine compounds of interest for further analysis.
The HCV replicon luciferase assay was developed to monitor the inhibitory effects of compounds described in the disclosure on HCV viral replication. Utilization of a replicon luciferase reporter assay was first described by Krieger et al (Krieger N, Lohmann V, and Bartenschlager R, J. Virol. 75(10):4614-4624 (2001)). HUH-7 cells, constitutively expressing the HCV replicon, were grown in Dulbecco's Modified Eagle Media (DMEM) (Gibco-BRL) containing 10% Fetal calf serum (FCS) (Sigma) and 1 mg/ml G418 (Gibco-BRL). […]

T1 sequence (Q9WMX2 2420-2992): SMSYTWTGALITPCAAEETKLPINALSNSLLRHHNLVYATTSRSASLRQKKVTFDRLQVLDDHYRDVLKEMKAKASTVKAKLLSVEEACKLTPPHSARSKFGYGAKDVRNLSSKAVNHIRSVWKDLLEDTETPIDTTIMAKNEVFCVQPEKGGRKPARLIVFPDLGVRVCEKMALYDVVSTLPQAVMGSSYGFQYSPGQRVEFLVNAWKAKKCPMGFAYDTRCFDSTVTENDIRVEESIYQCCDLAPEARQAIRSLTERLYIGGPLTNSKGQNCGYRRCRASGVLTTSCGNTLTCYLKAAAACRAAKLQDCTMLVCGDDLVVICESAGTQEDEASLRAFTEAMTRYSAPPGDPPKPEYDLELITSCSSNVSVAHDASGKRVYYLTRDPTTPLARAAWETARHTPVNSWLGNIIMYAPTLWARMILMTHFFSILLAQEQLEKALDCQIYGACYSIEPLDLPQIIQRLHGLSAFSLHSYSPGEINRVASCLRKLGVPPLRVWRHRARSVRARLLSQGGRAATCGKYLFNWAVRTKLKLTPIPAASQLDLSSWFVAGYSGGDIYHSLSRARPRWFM

Compound | sustained efficacy (HCV; combination therapy (Poynard et al. 1998)) | hepatic toxicity (HCV; extended dosing of the combination regimens) | HCV RNA levels in patients (HCV; patients, single agent: transient decrease then rebound, more robust drop with interferon and ribavirin) | IC50 (HCV NS5B) [nM] | EC50 (HCV replicon) [nM]
alpha-interferon and ribavirin | 40 % of patients |  |  |  | 
CNC(=O)c1c(-c2ccc(F)cc2)oc2cc(N(CCO)S(C)(=O)=O)c(C3CC3)cc12 [HCV-796] |  | hepatic toxicity observed | ability to reduce HCV RNA levels in patients |  | 
CNC(=O)c1c(-c2ccc(F)cc2)oc2ccc(-c3cc(C(=O)N[C@@H](C)c4nc5cnccc5o4)c(OC)cc3C)c(F)c12 |  |  |  | 60 | 20
CNC(=O)c1c(-c2ccc(F)cc2)oc2ccc(-c3cc(C(=O)NC4(c5ccc6ccncc6n5)CC4)c(OC)cc3C)c(F)c12 [5-(5-(1-(1,7-naphthyridin-2-yl)cyclopropylcarbamoyl)-4-methoxy-2-methylphenyl)-4-fluoro-2-(4-fluorophenyl)-N-methylbenzofuran-3-carboxamide] |  |  |  | 30 | 6
CNC(=O)c1c(-c2ccc(F)cc2)oc2ccc(-c3cc(C(=O)NC4(c5ccc6ncccc6n5)CC4)cc(F)c3C)c(F)c12 [5-(5-(1-(1,5-naphthyridin-2-yl)cyclopropylcarbamoyl)-3-fluoro-2-methylphenyl)-4-fluoro-2-(4-fluorophenyl)-N-methylbenzofuran-3-carboxamide] |  |  |  | 70 | 100
CNC(=O)c1c(-c2ccc(F)cc2)oc2ccc(-c3cc(C(=O)NC4(c5ccc6ncccc6n5)CC4)ccc3C)c(F)c12 |  |  |  | 10 | 30
